Data taken from patent publication US20070161108A1, “Bob-1 specific T cells and methods to use” (priority 2004, published 2007).

Key:
[1] = tested on: T-cell lines from an HIV-2 infected patient; assay: gamma-interferon-ELISPOT-assay, T-cell lines from an HIV-2 infected patient (FIG. 12); type: cell-based, human; conditions: PBMC stimulated by pool of 5 overlapping peptides aa151-210
Experimental: FIG. 12 Recognition of Bob-1 specific peptide aa171-190 by T-cell lines from an HIV-2 infected patient. PBMC from the patient had been stimulated by a pool of 5 overlapping peptides spanning aa151-210 of the Bob-1 sequence. Outgrowing cells were tested in a gamma-interferon-ELISPOT-assay of recognition of the peptide pool aa151-210 and of the individual peptides.

[2] = tested on: PBMC of a healthy person; assay: gamma-IFN-ELISPOT, in vitro stimulation of PBMC of a healthy person with peptide-loaded dendritic cells (FIG. 14); type: cell-based, human; conditions: pool 1 or pool 4 presented by autologous dendritic cells
Description: Given are the number of peptide-specific T-cells after stimulation of the pool 1-specific or the pool 4-specific cell lines with the respective pools and the indicated peptides. […] The T-cell lines had been generated by stimulation of peripheral blood mononuclear cells (PBMC) with five different pools containing each five 20 amino acid (aa) long peptides with a 10 amino acid long overlap, corresponding to aa 1 to aa 256 of the Bob-1 protein. The peptide pools were presented by autologous dendritic cells that had been generated by a standard protocoll (Berger T G, Feuerstein B, Strasser E, Hirsch U, Schreiner D, Schuler G, Schuler-Thurner B. Large-scale generation of mature monocyte-derived dendritic cells for clinical application in cell factories. Journal of immunological methods 2002, 268: 131-140). […] Therefore, it represents a model for an in vivo induction of a Bob-1 specific T-cell response.
For this, PBMC of a healthy person were stimulated—as described above—with autologous dendritic cells loaded with a selection of Bob-1 derived peptides. […]

QAPLTYFPWPQPLSTLPTST [peptide aa171-190]
Recognition in gamma-interferon-ELISPOT [1]: specific recognition | Recognition by T-cell lines, or induction of Bob-1-specific T-cells, gamma-IFN-ELISPOT [2]: specific recognition
